# Results taken from ChEMBL document CHEMBL1153703, “Cell-based optimization of novel benzamides as potential antimalarial leads” (Bioorg Med Chem Lett, 2009).
# Assays:
# Mus musculus [1] = assay: AUC (0 to 5 hrs) in BALB/c mouse at 20 mg/kg; format: ADME, organism-based, Plasma; set-up: time < 4 hr, dose 20 mg/kg; conditions: in vivo, 4 h
# Mus musculus [2] = assay: Dose normalised AUC (0 to 5 hrs) in BALB/c mouse at 20 mg/kg, po; format: ADME, organism-based; set-up: time < 4 hr, dose 20 mg/kg, route oral; conditions: in vivo, 4 h
# [3] = Selectivity index, TC50 for human HeLa cells to EC50 for chloroquine-sensitive Plasmodium falciparum 3D7; format: toxicity, cell-based; conditions: read-out: Selectivity Index
# [4] = Selectivity index, TC50 for human HuH7 cells to EC50 for chloroquine-sensitive Plasmodium falciparum 3D7; format: toxicity, cell-based, Huh-7; conditions: read-out: Selectivity Index
# [5] = Cytotoxicity against human HeLa cells; format: cell-based; conditions: read-out: TC50 (the source's name)
# [6] = Selectivity index, TC50 for human Hep2 cells to EC50 for chloroquine-sensitive Plasmodium falciparum 3D7; format: toxicity, cell-based, HEp-2; conditions: read-out: Selectivity Index
# [7] = Selectivity index, TC50 for mice (Mus musculus) BAF3 cells to EC50 for chloroquine-sensitive Plasmodium falciparum 3D7; format: toxicity, cell-based; conditions: read-out: Selectivity Index
# [8] = Cytotoxicity against human 293T cells; format: cell-based, HEK-293T; conditions: read-out: TC50 (the source's name)
# [9] = Cytotoxicity against mouse BAF3 cells; format: cell-based; conditions: read-out: TC50 (the source's name)
# [10] = Cytotoxicity against human Hep2 cells; format: cell-based, HEp-2; conditions: read-out: TC50 (the source's name)
# [11] = Cytotoxicity against CHO cells; format: cell-based, Cricetulus griseus; conditions: chinese hamster, read-out: TC50 (the source's name)
# [12] = Selectivity index, TC50 for CHO cells to EC50 for chloroquine-sensitive Plasmodium falciparum 3D7; format: toxicity, cell-based; conditions: hamster, read-out: Selectivity Index
# [13] = Cytotoxicity against human HuH7 cells; format: cell-based, Huh-7; conditions: read-out: TC50 (the source's name)
AUC (Mus musculus [1]),AUC (Mus musculus [2]),SMILES,also measured
4.37 µM·h,6.1 µg·min/mL,O=C(Nc1cccc(Cl)c1)c1cc(N2CCC(N3CCCCC3)CC2)cc(C(F)(F)F)c1,–
3.92 µM·h,5.31 µg·min/mL,O=C(Nc1cccc(Cl)c1)c1cc(N2CCC(N3CCCC3)CC2)cc(C(F)(F)F)c1,–
4.81 µM·h,7.01 µg·min/mL,O=C(Nc1cc(Cl)cc(Cl)c1)c1cc(N2CCC(N3CCCC3)CC2)cc(C(F)(F)F)c1,–

# The remaining lines, values behind:
SMILES,AUC (Mus musculus [1]),AUC (Mus musculus [2]),also measured
CC1CCN(C2CCN(c3cc(C(=O)Nc4cccc(Cl)c4)cc(C(F)(F)F)c3)CC2)CC1,7.93 µM·h,11.42 µg·min/mL,selectivity ratio [3]: > 20; selectivity ratio [4]: > 20; CC50 [5]: > 8 µM; selectivity ratio [6]: > 20; selectivity ratio [7]: > 20; CC50 [8]: > 8 µM; CC50 [9]: > 8 µM; CC50 [10]: > 8 µM; CC50 [11]: > 8 µM; selectivity ratio [12]: > 20; CC50 [13]: > 8 µM
O=C(Nc1cccc(C(F)(F)F)c1)c1cc(N2CCc3ccccc3C2)cc(C(F)(F)F)c1,1.67 µM·h,2.33 µg·min/mL,–
O=C(Nc1cc(N2CCC(N3CCCC3)CC2)cc(C(F)(F)F)c1)c1cccc(C(F)(F)F)c1,4.77 µM·h,6.94 µg·min/mL,–
